# Data published in US10800741B2 (ANCUREALL PHARMACEUTICAL (SHANGHAI) CO., LTD., priority 2017, dated 2020).
# Where two headings read alike, the source gives them in different places.
# How the values were obtained:
# Format in all cases: cell-based, Human
# [1] = test system: H1703 (PDGFRa amp); test: In vitro growth inhibition of H1703 tumor cells (MTT/CCK8); settings: Homo sapiens
# [2] = test system: KATO III (FGFR2 amp); test: In vitro growth inhibition of KATO III tumor cells (MTT/CCK8); settings: Homo sapiens, KATO III, read-out: IC50 KATO III (FGFR2 amp)
# [3] = test system: Kasumi-1 (KIT N822K); test: In vitro growth inhibition of Kasumi-1 tumor cells (MTT/CCK8); settings: Homo sapiens
# [4] = test system: H1581 (FGFR1 amp); test: In vitro growth inhibition of H1581 tumor cells (MTT/CCK8); settings: Homo sapiens
# [5] = test system: Hep3B2 (FGFR3/4+++); test: In vitro growth inhibition of Hep3B2 tumor cells (MTT/CCK8); settings: Homo sapiens, Hep3B, read-out: IC50 Hep3B2 (FGFR3/4+++)
# [6] = test system: MOLM-13 (FLT3-ITD); test: In vitro growth inhibition of MOLM-13 tumor cells (MTT/CCK8); settings: Homo sapiens
# [7] = test system: KCL-22 (BCR-ABL); test: In vitro growth inhibition of KCL-22 tumor cells (MTT/CCK8); settings: Homo sapiens
# [8] = test system: Karpas 299 (NPM-ALK); test: In vitro growth inhibition of Karpas 299 tumor cells (MTT/CCK8); settings: Homo sapiens
# [9] = NCI-H1703, in vitro growth inhibition (or induction of apoptosis), cells cultured 3 to 5 days, MTT (CCK8), read-out: IC50 H1703 (PDGFRa amp)
# [10] = in vitro growth inhibition (or induction of apoptosis), cells cultured 3 to 5 days, MTT (CCK8)
# [11] = Kasumi 1, in vitro growth inhibition (or induction of apoptosis), cells cultured 3 to 5 days, MTT (CCK8), read-out: IC50 Kasumi-1 (KIT N822K)
# [12] = NCI-H1581, in vitro growth inhibition (or induction of apoptosis), cells cultured 3 to 5 days, MTT (CCK8), read-out: IC50 H1581 (FGFR1 amp)
# [13] = MOLM-13, in vitro growth inhibition (or induction of apoptosis), cells cultured 3 to 5 days, MTT (CCK8), read-out: IC50 MOLM-13 (FLT3-ITD)
# [14] = KCL-22, in vitro growth inhibition (or induction of apoptosis), cells cultured 3 to 5 days, MTT (CCK8), read-out: IC50 KCL-22 (BCR-ABL)
# [15] = KARPAS-299, in vitro growth inhibition (or induction of apoptosis), cells cultured 3 to 5 days, MTT (CCK8), read-out: IC50 Karpas 299 (NPM-ALK)
Compound,"IC50 ([1]; NCI-H1703, read-out: IC50 H1703 (PDGFRa amp))",IC50 [2],"IC50 ([3]; Kasumi 1, read-out: IC50 Kasumi-1 (KIT N822K))","IC50 ([4]; NCI-H1581, read-out: IC50 H1581 (FGFR1 amp))",IC50 [5],"IC50 ([6]; MOLM-13, read-out: IC50 MOLM-13 (FLT3-ITD))","IC50 ([7]; KCL-22, read-out: IC50 KCL-22 (BCR-ABL))","IC50 ([8]; KARPAS-299, read-out: IC50 Karpas 299 (NPM-ALK))","IC50 [1, 9]","IC50 [2, 10]","IC50 [3, 11]","IC50 [4, 12]","IC50 [5, 10]","IC50 [6, 13]","IC50 [7, 14]","IC50 [8, 15]"
CNC(=O)c1cc2c(Oc3ccc(NC(=O)n4nc(C(C)(C)C)cc4N)c(Cl)c3)ccnc2cc1OC [Compound 72],250 nM,6.18 nM,137 nM,165 nM,159 nM,50.8 nM,117 nM,736 nM,,,,,,,,
"COc1cc2nccc(Oc3ccc(NC(=O)N4CCc5ccsc5C4)c(Cl)c3)c2cc1C(N)=O [Compound 74, 4-{3-chloro-4-[(4,7-dihydro-5H-thieno[2,3-c]pyridin-6-carbonyl)-amino]-phenoxy}-7-methoxyquinolin-6-carboxamide]",,,,,,,,,> 1000 nM,> 1000 nM,> 1000 nM,> 1000 nM,> 1000 nM,> 1000 nM,> 1000 nM,> 1000 nM
"COc1cc(Oc2ccnc3cc(OC)c(C(N)=O)cc23)ccc1NC(=O)n1nc(C(C)(C)C)cc1N [Compound 73, 4-{4-[(5-amino-3-tert-butyl-pyrazol-1-carbonyl)-amino]-3-methoxy-phenoxy}-7-methoxyquinolin-6-carboxamide]",,,,,,,,,222 nM,265 nM,129 nM,138 nM,288 nM,197 nM,80.6 nM,88.5 nM
"COc1cc2nccc(Oc3ccc(NC(=O)Nc4cc(C(C)(C)C)n[nH]4)cc3C(C)C)c2cc1C(N)=O [Compound 107, 4-{4-[3-(5-tert-butyl-2H-pyrazol-3-yl)-ureido]-2-isopropyl-phenoxy}-7-methoxy-quinolin-6-carboxamide]",,,,,,,,,263 nM,345 nM,> 1000 nM,341 nM,> 1000 nM,50.4 nM,589 nM,759 nM
"COc1cc2nccc(Oc3ccc(N(C)C(=O)Nc4cc(C(C)(C)C)on4)cc3)c2cc1C(N)=O [Compound 11, 4-{4-[3-(5-tert-butyl-isoxazol-3-yl)-1-methyl-ureido]-phenoxy}-7-methoxyquinolin-6-carboxamide]",,,,,,,,,20.4 nM,12.1 nM,89.8 nM,270 nM,677 nM,2.41 nM,28.1 nM,> 1000 nM
"COc1cc2nccc(Nc3ccc(NC(=O)Nc4cc(C(C)(C)C)n[nH]4)cc3C)c2cc1C(N)=O [Compound 98, 4-{4-[3-(5-tert-butyl-2H-pyrazol-3-yl)-ureido]-2-methyl-phenylamino}-7-methoxy-quinolin-6-carboxamide]",,,,,,,,,605 nM,270 nM,> 1000 nM,433 nM,843 nM,6 nM,> 1000 nM,> 1000 nM
"COc1cc2nccc(Nc3ccc(NC(=O)Nc4cc(C(C)(C)C)n[nH]4)cc3Cl)c2cc1C(N)=O [Compound 97, 4-{4-[3-(5-tert-butyl-2H-pyrazol-3-yl)-ureido]-2-chloro-phenylamino}-7-methoxy-quinolin-6-carboxamide]",,,,,,,,,342 nM,117 nM,> 1000 nM,254 nM,456 nM,0.8 nM,122 nM,803 nM
"C=CC(=O)n1nc(C(C)(C)C)cc1NC(=O)Nc1ccc(Oc2ccnc3cc(OC)c(C(N)=O)cc23)cc1Cl [Compound 28, 4-{4-[3-(2-acryloyl-5-tert-butyl-2H-pyrazol-3-yl)-ureido]-3-chloro-phenoxy}-7-methoxyquinolin-6-carboxamide]",,,,,,,,,17.1 nM,0.73 nM,32.5 nM,17.4 nM,24.2 nM,6.53 nM,25.1 nM,698 nM
"COc1cc2nccc(Oc3ccc(NC(=O)Nc4cc(C(C)(C)C)n[nH]4)c(C)c3C)c2cc1C(N)=O [Compound 109, 4-{4-[3-(5-tert-butyl-2H-pyrazol-3-yl)-ureido]-2,3-dimethyl-phenoxy}-7-methoxy-quinolin-6-carboxamide]",,,,,,,,,108 nM,1.55 nM,0.471 nM,17.7 nM,98.7 nM,18.7 nM,2.48 nM,559 nM
"COc1cc2nccc(Oc3ccc(NC(=O)Nc4cc(C(C)(C)C)nn4C4CCCC4)c(Cl)c3)c2cc1C(N)=O [Compound 30, 4-{4-[3-(5-tert-butyl-2-cyclopentyl-2H-pyrazol-3-yl)-ureido]-3-chloro-phenoxy}-7-methoxyquinolin-6-carboxamide]",,,,,,,,,16.7 nM,1.62 nM,23.7 nM,15.5 nM,26.1 nM,17.8 nM,22 nM,276 nM
COc1cc2nccc(Oc3ccc(NC(=O)Nc4cc(C(C)(C)C)on4)c(C(F)(F)F)c3)c2cc1C(N)=O [Compound 4],,,,,,,,,21.8 nM,2.93 nM,14.5 nM,13.2 nM,27.8 nM,122 nM,10.4 nM,756 nM
"COCCN1CCN(CCCOc2cc3nccc(Oc4ccc(NC(=O)Nc5cc(C(C)(C)C)n[nH]5)c(Cl)c4)c3cc2C(N)=O)CC1 [Compound 85, 4-{4-[3-(5-tert-butyl-2H-pyrazol-3-yl)-ureido]-3-chloro-phenoxy}-7-{3-[4-(2-methoxy-ethyl)-piperazin-1-yl]-propoxy}-quinolin-6-carboxamide]",,,,,,,,,14 nM,1.92 nM,6.49 nM,14.2 nM,16.8 nM,2.83 nM,33.1 nM,263 nM
"CC(C)(C)c1cc(NC(=O)Nc2ccc(Oc3ccnc4c(C(F)(F)F)cccc34)cc2Cl)no1 [Compound 114, 1-(5-tert-butyl-isoxazol-3-yl)-3-[2-chloro-4-(8-trifluoromethyl-quinolin-4-yloxy)-phenyl]-urea]",,,,,,,,,> 1000 nM,> 1000 nM,> 1000 nM,> 1000 nM,> 1000 nM,> 1000 nM,> 5000 nM,> 1000 nM
"COc1cc2nccc(Oc3ccc(NC(=O)Nc4cc(C(C)(C)C)nn4CCN4CCOCC4)c(Cl)c3)c2cc1C(N)=O [Compound 31, 4-(4-{3-[5-tert-butyl-2-(2-morpholin-4-yl-ethyl)-2H-pyrazol-3-yl]-ureido}-3-chloro-phenoxy)-7-methoxyquinolin-6-carboxamide]",,,,,,,,,25 nM,0.12 nM,40.4 nM,23.4 nM,32.9 nM,9.45 nM,51.2 nM,465 nM
"COc1cc2nccc(Oc3ccc(NC(=O)Nc4cc(C(C)(C)C)nn4C)c(C)c3C)c2cc1C(N)=O [Compound 110, 4-{4-[3-(5-tert-butyl-2-methyl-2H-pyrazol-3-yl)-ureido]-2,3-dimethyl-phenoxy}-7-methoxy-quinolin-6-carboxamide]",,,,,,,,,46.1 nM,2.98 nM,0.41 nM,8.36 nM,83.8 nM,19.7 nM,3.21 nM,508 nM
"COc1cc2nccc(Oc3ccc(NC(=O)Nc4cc(C(C)(C)C)n[nH]4)cc3Cl)c2cc1NC(C)=O [Compound 101, N-(4-{4-[3-(5-tert-butyl-2H-pyrazol-3-yl)-ureido]-2-chloro-phenoxy}-7-methoxy-quinolin-6-yl)-acetamide]",,,,,,,,,61.3 nM,2.34 nM,24.1 nM,9.56 nM,110 nM,0.08 nM,11 nM,64.3 nM
"CNC(=O)c1cc2c(Oc3ccc(NC(=O)Nc4cc(C(C)(C)C)on4)c(Cl)c3)ccnc2cc1OC [Compound 14, 4-{4-[3-(5-tert-butyl-isoxazol-3-yl)-ureido]-3-chloro-phenoxy}-7-methoxyquinolin-6-carboxylic acid methylamide]",,,,,,,,,10.2 nM,2.16 nM,33.3 nM,10.5 nM,24.1 nM,5.56 nM,8.97 nM,725 nM
